Where two headings read alike, the source gives them in different places.
Experiments:
coronavirus HCoV OC43 = assay: In vitro anti-coronavirus activity by cytopathic model (CPE, CellTiter Glo); type: cell-based; conditions: HCoV OC43 100 TCID50/well, MRC5 cells, 5 days
Description: MRC5 cells and coronavirus HCoV OC43 were purchased from ATCC.
MRC5 cells were cultured in MEM (Sigma) medium supplemented with 10% fetal bovine serum (Excell), 1% double antibody (Hyclone), 1%L-glutamine (Gibco) and 1% non-essential amino acids (Gibco). MEM (Sigma) medium supplemented with 5% fetal bovine serum (Excell), 1% double antibody (Hyclone), 1% L-glutamine (Gibco) and 1% non-essential amino acid (Gibco) was used as the experimental culture medium.
Cells were inoculated into a 96 microwell plate at a certain density (Table 6) and cultured overnight in an incubator at 5% CO2 and 37° C. On the second day, the compound was added after doubling dilution (8 concentration points, duplicate wells), with 50 µL per well. Then the diluted virus was added to the cells at 100 TCID50 per well, 50 µL per well. Cell control (cell without compound treatment or virus infection), virus control (cell infected with virus without compound treatment) and culture medium control (only culture medium) were set. The final volume of the culture medium in this experiment was 200 µL, and the final concentration of DMSO in the culture medium was 0.5%. Cells were cultured in a 5% CO2, 33° C. incubator for 5 days. Cell viability was detected using the cell viability assay kit CellTiter Glo (Promega). Cytotoxicity experiments were performed under the same conditions as antiviral experiments, but without virus infection.
The antiviral activity and cytotoxicity of the compound were represented by the inhibition rate (%) and cell viability (%) of the compound on the cytopathic effect caused by the virus at different concentrations, respectively. The calculation formula is as follows: […]
GraphPad Prism was used to perform nonlinear fitting analysis on the inhibition rate and cell viability of the compound, and the half effective concentration (EC50) and half cytotoxic concentration (CC50) of the compound were calculated.

[1] = system: SARS-CoV-2 virus (Novel coronavirus βCoV/KOR/KCDC03/2020 strain); assay: Anti-novel coronavirus activity in Vero cells (immunofluorescence, high-content imaging); type: cell-based; conditions: Severe acute respiratory syndrome coronavirus 2, wild-type novel coronavirus, MOI=0.0125, 24 hours
in vitro = conditions: African green monkey
[2] = Cytotoxicity in the cytopathic model, without virus infection (CellTiter Glo); conditions: human
SARS-CoV-2 Mpro = SARS-CoV-2 Mpro (Severe acute respiratory syndrome coronavirus 2 (2019-nCoV) (SARS-CoV-2), UniProt P0DTD1); assay: In vitro anti-novel coronavirus Mpro protease activity (fluorescent substrate cleavage); type: biochemical
Description: The compound was dissolved in DMSO, and diluted in a 3-fold gradient with Echo655 according to the concentration requirements to 10 concentration points, and duplicate tests were set at each concentration, and the diluted solution was added to a 384-well plate. Mpro protein and substrate were diluted with test buffer (100 mM NaCl, 20 mM Tris-HCl, 1 mM EDTA), and Mpro protein was added to the 384-well test plate, incubated with the compound for 30 min at room temperature, and then the substrate was added thereto, and the test concentration of Mpro protein was 25 nM, and the test concentration of substrate was 25 µM. After incubating for 60 minutes in a 30° C. constant temperature incubator, the fluorescence signal value of Ex/Em=340 nm/490 nm was detected by microplate reader. At the same time, the background well containing the substrate and compound but not containing Mpro protein was detected as control.

Vero cells = conditions: 24 hours
[3] = set-up: species or system C57BL/6J male mice; conditions: mouse, in vivo, po, 10 mg/kg
Description: In this study, C57BL/6J male mice were selected as test animals, and the LC/MS/MS method was used to quantitatively measure the plasma concentrations of mice in combination with Ritonavir at different time points, so as to evaluate the pharmacokinetic characteristics of the test drug in mice.
Firstly, 10 mpk of Ritonavir was administered to mice by intragastric administration at -12 h and 0 h, and then the test compound was dissolved in 30% PEG400+70% normal saline solution and administered to mice by intragastric administration (overnight fasting, 6 to 8 weeks old). 25 µL of blood was collected at 0.083, 0.25, 0.5, 1, 2, 4, 8, 12 and 24 hours after administration to animals, placed in a commercial anticoagulant tube pre-added with EDTA-K2, and centrifuged at 4° C., 3200 g for 10 min to obtain plasma. After the plasma samples were treated, the plasma concentration was determined by LC-MS/MS method.

[4] = Tissue distribution test in rats (plasma and lung, with Ritonavir); type: in vivo, SD male rats; conditions: 30 mpk p.o. with Ritonavir 10 mpk
Description: In this study, SD male rats were selected as test animals, and the drug concentrations of test compounds in plasma and lungs of rats at different time points were quantitatively measured by LC/MS/MS method to evaluate the pharmacokinetic characteristics of test drugs in rats.
Firstly, 10 mpk of Ritonavir was administered to rats by intragastric administration at -12 h and 0 h, and 30 mpk of the test compound was dissolved in 10% Solutol + 30% PEG 400 + 2% Tween 80+H2O 58% solution and administered to rats by intragastric administration (overnight fasting). 40 µL of blood was collected from the saphenous vein of rats at 0.25, 1 and 6 hours after administration, placed in an anticoagulant tube added with EDTA-K2, centrifuged at 4° C., 3200 g for 10 min to obtain plasma, and some animals were killed at 0.25, 1 and 6 hours respectively to collect lung tissue. After the plasma samples were treated, the plasma concentration was determined by LC-MS/MS method.

[5] = set-up: species or system C57BL/6J male mice; conditions: mouse, in vivo
Description: In this study, C57BL/6J male mice were selected as test animals, and LC/MS/MS method was used to quantitatively measure the plasma concentration of the test compound 11 at different time points after oral administration and injection in mice, so as to evaluate the pharmacokinetic characteristics of the test drug in mice.
The test compound dissolved in 30% PEG400+70% normal saline was administered to mice (overnight fasting, 6-8 weeks old) by intragastric administration. 25 µL of blood was collected at 0.083, 0.25, 0.5, 1, 2, 4, 8, 12 and 24 hours after administration, respectively, and placed in commercial anticoagulation tubes pre-added with EDTA-K2, centrifuged at 4° C., 3200 g for 10 min to obtain plasma, and after the plasma sample was treated, the plasma concentration was determined by LC-MS/MS method.

[6] = 25 nM Mpro protein, 25 µM substrate, read-out: IC50

Row | SMILES | EC50 (coronavirus HCoV OC43; Betacoronavirus 1, 120 h) [nM] | EC50 [1] [nM] | CC50 (in vitro) [nM] | CC50 at 5 days [2] [nM] | IC50 (SARS-CoV-2 Mpro) [nM] | IC50 (SARS-CoV-2 Mpro; [6]) [nM] | also measured
1 | N#C[C@H](C[C@@H]1CCNC1=O)NC(=O)[C@@H]1[C@H]2CC[C@H](C2)N1C(=O)[C@@H](NC(=O)C(F)(F)F)C12CC3CC(CC(C3)C1)C2 [Compound 3] | 62 | 35 | > 5000 | > 10000 | 21 | – | –
2 | N#C[C@H](C[C@@H]1CCNC1=O)NC(=O)[C@@H]1[C@H]2CC[C@H](C2)N1C(=O)[C@@H](NC(=O)C(F)(F)F)C12CCC(CC1)CC2 [Compound 4] | 141 | 30 | > 5000 | > 10000 | 53 | – | –
3 | CC1C[C@H]2C[C@@H]1N(C(=O)[C@@H](NC(=O)C(F)(F)F)C(C)(C)C)[C@@H]2C(=O)N[C@H](C#N)C[C@@H]1CCNC1=O (stereo partly shown) [Compound 5] | 205 | 20 | > 5000 | > 10000 | – | – | –
4 | CC(C)(C)[C@H](NC(=O)C(F)(F)F)C(=O)N1[C@H]2C[C@@H]([C@H]1C(=O)N[C@H](C#N)C[C@@H]1CCNC1=O)C(F)(F)C2 [Compound 6] | – | – | – | – | 135 | – | –
5 | CC1([C@H](NC(=O)C(F)(F)F)C(=O)N2[C@@H]3CC[C@@H](C3)[C@H]2C(=O)N[C@H](C#N)C[C@@H]2CCNC2=O)CCCCC1 [Compound 7] | – | – | – | – | 62 | – | –
6 | CC(C)(C)[C@H](NC(=O)C(F)(F)F)C(=O)N1[C@H]2C[C@@H]([C@H]1C(=O)N[C@H](C#N)C[C@@H]1CCNC1=O)C(F)(F)C2 [Compound 10] | – | – | – | – | – | 17 | –
7 | CC(C)(C)[C@H](NC(=O)C(F)(F)F)C(=O)N1[C@H]2C[C@@H]([C@H]1C(=O)N[C@H](C#N)C[C@@H]1CCNC1=O)C1(CC1)C2 [Compound 11] | – | – | – | – | – | 5.4 | CC50 (Vero cells): > 5000 nM; EC50 (coronavirus HCoV OC43): 3.5 nM; AUC0-last [3]: 28.683 µM·h; Cmax [3]: 10.1 µM; Tmax [3]: 30 min; Ratio lung/plasma of AUC(0-6 h) [4]: 2.6/1; Ratio lung/plasma ([4]; 0.25 h): 5.5/1; Ratio lung/plasma ([4]; 1 h): 3.2/1; Ratio lung/plasma ([4]; 6 h): 1.6/1; AUC0-last ([5]; iv, 3 mg/kg): 1.447 µM·h; CL ([5]; iv, 3 mg/kg): 68.5 mL/min/kg; T½ ([5]; iv, 3 mg/kg): 12 min; Vdss ([5]; iv, 3 mg/kg): 0.9 L/kg; AUC0-last ([5]; po, 10 mg/kg): 1.519 µM·h; Cmax ([5]; po, 10 mg/kg): 1.85 µM; Tmax ([5]; po, 10 mg/kg): 15 min; CC50 (MRC5 cells): > 10000 nM
8 | CC1C[C@@H]2C[C@H]1[C@@H](C(=O)N[C@H](C#N)C[C@@H]1CCNC1=O)N2C(=O)[C@@H](NC(=O)C(F)(F)F)C12CC3CC(CC(C3)C1)C2 (stereo partly shown) [Compound 12] | – | – | – | – | – | 17 | –
9 | Cc1ccc(CC(=O)N[C@H](C(=O)N2[C@@H]3CC[C@@H](C3)[C@H]2C(=O)N[C@H](C#N)C[C@@H]2CCNC2=O)C23CC4CC(CC(C4)C2)C3)cc1 [Compound 13] | – | – | – | – | – | 75 | –

Source: US20230312571A1, “RING-MODIFIED PROLINE SHORT PEPTIDE COMPOUND AND USE THEREOF” (priority 2021, published 2023)
